PubChem BioAssay (NCI)
Where “and” joins values, the source holds several entries; their conditions need not be identical. Equal entries are not always repeated.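 In this assay, cells in 96-well plates receive the compound at five concentrations for 48 hours. Endpoints are linearly interpolated between the surrounding concentrations. GI50: concentration for 50% inhibition of growth. Definition used: TGI = concentration required for complete inhibition of growth.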

What was measured:
Assay in all cases: NCI tumour cell line growth inhibition, 48 h
A498 renal = tested on: A498 renal
DLD-1 colon = tested on: DLD-1 colon
EKVX NSCLC = tested on: EKVX NSCLC
KM20L2 colon = tested on: KM20L2 colon
M19-MEL melanoma = tested on: M19-MEL melanoma
NCI-H460 lung = tested on: NCI-H460 lung
RPMI-8226 leukemia = tested on: RPMI-8226 leukemia
SN12C renal = tested on: SN12C renal
UACC-62 melanoma = tested on: UACC-62 melanoma
NCI-H226 lung = tested on: NCI-H226 lung

| SMILES | GI50 (A498 renal) [µM] | TGI (A498 renal) | GI50 (DLD-1 colon) | TGI (DLD-1 colon) | GI50 (EKVX NSCLC) | TGI (EKVX NSCLC) | GI50 (KM20L2 colon) | TGI (KM20L2 colon) | GI50 (M19-MEL melanoma) | TGI (M19-MEL melanoma) [µM] | GI50 (NCI-H460 lung) | TGI (NCI-H460 lung) | GI50 (RPMI-8226 leukemia) [µM] | TGI (RPMI-8226 leukemia) | TGI (SN12C renal) [µM] | GI50 (UACC-62 melanoma) | GI50 (NCI-H226 lung) [µM] | TGI (NCI-H226 lung) | GI50 (SN12C renal) [µM] | TGI (UACC-62 melanoma) |
| --- | --- | --- | --- | --- | --- | --- | --- | --- | --- | --- | --- | --- | --- | --- | --- | --- | --- | --- | --- | --- |
| CC1[C@@H]2CC=C3[C@H]4CCC5Cc6nc7c(nc6C[C@@]5(C)C4(O)CC(=O)[C@]32CO[C@]12OC(C)(C)CC2O)CC1CC[C@@H]2C3=C[C@H]4O[C@@]5(O[C@@](C)(CO)C[C@@H]5O)C(C)[C@@]4(O)[C@]3(C)[C@@H](O)CC2[C@]1(C)C7 (stereo partly specified) | 0.000396 | 0.00425 µM and 0.00493 µM | 0.0712 µM and 0.0866 µM | 0.874 µM and > 3.6 µM | 0.00615 µM and 0.00996 µM | 0.152 µM and 0.814 µM | 0.000664 µM and 0.00202 µM | 0.0704 µM and 0.0675 µM | 0.329 µM and 2.05 µM | > 3.6 | 0.000125 µM and 0.00036 µM | 0.0155 µM and 0.14 µM | < 0.00036 | 0.000322 µM and < 0.00036 µM | > 3.6 | 0.000142 µM and 0.000422 µM | – | – | – | – |
| CC(=O)[O-].[Zn].c1ccc(/C(=N\Nc2ccccn2)c2ccccn2)cc1 | – | 9.16 µM | – | 2.49 µM | 0.0465 µM | 2.84 µM | – | 1.75 µM | – | 1.89 | 0.35 µM | 1.32 µM | – | 2.86 µM | 10.9 | 0.0476 µM | 0.212 | 0.962 µM and 5.73 µM | 0.363 | 0.67 µM and 1.17 µM |
| CCOC(=O)C1=C(Nc2ccc(Br)cc2)OC/C1=N\NC(=O)c1ccccc1O | – | 99.3 µM | – | 97.3 µM | – | > 93.9 µM | – | > 100 µM | – | > 100 | – | > 100 µM | – | 49.4 µM | > 100 | – | – | > 84 µM | – | 8.63 µM |
| CCn1c(=O)c2ccccc2n2c(=O)c3cc4ccccc4cc3nc12 | – | > 100 µM | – | > 100 µM | – | > 100 µM | – | > 100 µM | – | > 100 | – | > 100 µM | – | > 100 µM | > 100 | – | – | > 100 µM | – | > 100 µM |
| S=c1sc2cscc2s1 | – | > 100 µM | – | 50.6 µM | – | 35.5 µM | – | 66.5 µM | – | 34.3 | – | 53.8 µM | – | > 100 µM | > 100 | – | – | 49.5 µM | – | 34 µM |
| CS/C(c1ccccc1)=[N+](\[O-])Cc1ccccc1 | – | > 100 µM | – | > 100 µM | – | > 100 µM | – | > 100 µM | – | > 100 | – | > 100 µM | – | 55.3 µM | > 100 | – | – | > 100 µM | – | > 100 µM |
| O=C(NC1C2CC3CC(C2)CC1C3)/C(Cl)=C1/Sc2ccccc2NC1=O (stereo unspecified) | – | > 100 µM | – | > 100 µM | – | > 100 µM | – | > 100 µM | – | > 100 | – | > 100 µM | – | – | > 100 | – | – | > 100 µM | – | > 100 µM |
| Cc1ccc(C2=C(c3ccc(C)cc3)C(c3ccc(C)cc3)=C(c3ccc(C)cc3)C2=O)cc1 | – | > 100 µM | – | > 100 µM | – | > 100 µM | – | > 100 µM | – | > 100 | – | > 100 µM | – | > 100 µM | > 100 | – | – | > 100 µM | – | – |
| Cc1ccccc1C(=O)Oc1ccc(OCc2ccccc2)cc1 | – | > 100 µM | – | > 100 µM | – | > 100 µM | – | > 100 µM | – | > 100 | – | > 100 µM | – | > 100 µM | > 100 | – | – | – | – | > 100 µM |
| CC1(C(=O)O)CCOc2ccccc21 (stereo unspecified) | – | > 100 µM | – | > 100 µM | – | > 100 µM | – | > 100 µM | – | > 100 | – | > 100 µM | – | > 100 µM | > 100 | – | – | > 100 µM | – | > 100 µM |
| O=C(Nc1ccc(Br)cc1)C(=O)C(C(=O)c1ccccc1F)C1OC(=O)c2ccccc21 (stereo unspecified) | – | > 100 µM | – | 80.1 µM | – | > 100 µM | – | > 100 µM | – | 42.7 | – | > 100 µM | – | 64.8 µM | 85 | – | – | 19.7 µM | – | 28.1 µM |
| O=C(N/C(=C\c1ccc(/C=C(\NC(=O)c2ccccc2)c2nc3ccccc3s2)cc1)c1nc2ccccc2s1)c1ccccc1 | – | 32.5 µM | – | 12 µM | – | 14.5 µM | – | 11.2 µM | – | 15.2 | – | 14.6 µM | – | 37.3 µM | 12.6 | – | – | 34.3 µM | – | 12 µM |
| O=C(Nc1nc2ccc([N+](=O)[O-])cc2s1)C(=O)C(C(=O)c1ccncc1)C1OC(=O)c2ccccc21 (stereo unspecified) | – | > 100 µM | – | > 100 µM | – | > 100 µM | – | > 100 µM | – | > 100 | – | – | – | > 100 µM | > 100 | – | – | > 100 µM | – | > 100 µM |
| CC(=O)OC1CCC2C(=CCC3C2(C)C(=O)CC2(C)C(C4(C)OC(C(C)C)=CC4=O)C(O)CC32C)C1(C)C (stereo unspecified) | – | > 100 µM | – | > 100 µM | – | > 100 µM | – | 51.4 µM | – | 47.7 | – | 66.4 µM | – | 56.7 µM | > 100 | – | – | > 100 µM | – | 41.7 µM |
| Cn1c(=O)c(C(=O)NC(=O)NCCCCCOC(=O)CCCCCCCCCCC(=O)OCCCCCNC(=O)NC(=O)c2cn(Cc3ccccc3)c(=O)n(C)c2=O)cn(Cc2ccccc2)c1=O | – | > 100 µM | – | > 100 µM | – | > 100 µM | – | > 100 µM | – | > 100 | – | > 100 µM | – | > 100 µM | > 100 | – | – | > 100 µM | – | > 100 µM |
| CCOC(=O)N1C(c2ccccc2)C=CC(c2ccccc2)N1C(=O)OCC (stereo unspecified) | – | > 100 µM | – | > 100 µM | – | > 100 µM | – | > 100 µM | – | > 100 | – | > 100 µM | – | > 100 µM | > 100 | – | – | – | – | > 100 µM |
